According to patent publication US11571413B2, “Nicotinamide riboside treatments of domesticated meat animals” (Kansas State University Research Foundation, priority 2017, dated 2023):
Marks after values point to notes of the source that are not given here.

Tested on: Fertilized Cobb 500 broiler eggs
Test: In ovo NR dose, time course of body and pectoralis major morphometrics at E15, E19, hatch (second Example VI)
Format: in vivo, chicken
Method: Fertilized Cobb 500 broiler eggs (N=247; Cobb Vantress, Siloam Springs, Ark.) were transported to Kansas State University Muscle Biology Laboratory (Manhattan, Kans.), egg weights were recorded, and within each 4 egg strata eggs were randomly assigned to an NR treatment (0 mM, 250 mM, 500 mM, or 1 M NR). After treatment allocation, eggs were put onto trays and placed in a Sportsman 1502 incubator (GQF Manufacturing Company Inc., Savannah, Ga.) set to operate at 37° C. and 40±4% relative humidity. Trays were rotated hourly to reposition eggs and egg weights were recorded daily to determine percentage weight loss with a standard daily weight loss ranging from 0.65% to 0.75%.
At d 10 of incubation, the methods of Gonzalez and Jackson (2020) were followed for treatment administration. Eggs were briefly removed from the incubator and prior to injection, the injection site was cleaned with 70% ethanol. […] of 0.9% sterile saline was injected into yolk sac of each egg with a 2.54-cm, 20-guage injection needle inserted approximately 1-cm into injection site. The injection site was covered with a 1-cm^2 portion of medical tape (Nexcare; 3M, Maplewood, Minn.) and placed back into the incubator under the conditions described above. At d 18 of incubation, egg were removed from their trays, placed in hatching boxes, and the humidity of the incubator was increased to 60±2%.
At three time points, E (i.e., embryonic day 15, day 15 after the beginning of incubation), E19, and 24 hours post-hatching, embryos and chicks were euthanized by exposure to CO2 and decapitation. Crown to rump length (CR), head width and head length were measured by calipers (Traceable Digital Calipers; Fisher Scientific, Pittsburg, Pa.). Head and chest circumference were collected by curling a string around the target area and measuring the length of the curled string by a ruler. Chicks chest were sprayed with 70% ethanol, were skinned to expose the PMM, and chest width and length were measured by calipers. Both sides of the PMM were removed and the left side was weighed, followed by length, width, and thickness measurement collection. Following measurement collection, the left PMM was submerged in optimal cutting temperature tissue freezing medium compound, slowly frozen at −20° C. for 1 h, and stored at −80° C. until cryosectioning. The right side of PMM was stored in a 1.5 ml microcentrifuge tube and stored at −80° C. until NAD+ analysis. At last, the heart and liver of each chick were removed, weighed, and discarded.

[1] = 250 mM NR into yolk sac d 10, E15 embryos
[2] = 250 mM NR into yolk sac d 10, E19 embryos
[3] = 250 mM NR into yolk sac d 10, hatched chicks
[4] = 500 mM NR into yolk sac d 10, E15 embryos
[5] = 500 mM NR into yolk sac d 10, E19 embryos
[6] = 500 mM NR into yolk sac d 10, hatched chicks
[7] = 1,000 mM NR into yolk sac d 10, E15 embryos
[8] = 1,000 mM NR into yolk sac d 10, E19 embryos
[9] = 1,000 mM NR into yolk sac d 10, hatched chicks
[10] = E19 embryos, 250 to 1,000 mM NR

NC(=O)c1ccc[n+]([C@@H]2O[C@H](CO)[C@@H](O)[C@H]2O)c1 [Nicotinamide riboside, nicotinamide riboside]
Body weight [1]: 14.5 g | Crown-rump length [1]: 61.4 mm | Head length [1]: 17.6 mm | Head width [1]: 13.7 mm | Heart weight [1]: 0.14 g | Liver weight [1]: 0.27 g | Pectoralis major depth [1]: 7.2 mm | Pectoralis major length [1]: 18.3 mm | Pectoralis major weight [1]: 0.81 g | Pectoralis major width [1]: 14.7 mm | Body weight [2]: 37.7 g | Chest circumference [2]: 59.5 mm | Chest length [2]: 18.6 mm | Chest width [2]: 15.5 mm | Crown-rump length [2]: 84.3 mm | Head circumference [2]: 53.2^a,c mm | Head length [2]: 17.7 mm | Head width [2]: 15.4 mm | Heart weight [2]: 0.22 g | Liver weight [2]: 0.64 g | Pectoralis major depth [2]: 2.9 mm | Pectoralis major length [2]: 17.2^b mm | Pectoralis major weight [2]: 0.17^b g | Pectoralis major width [2]: 5.5 mm | Body weight [3]: 46.9 g | Chest circumference [3]: 61.2 mm | Chest length [3]: 21.9 mm | Chest width [3]: 17.1^b mm | Crown-rump length [3]: 95.4 mm | Head circumference [3]: 55.7 mm | Head length [3]: 18.7^b mm | Head width [3]: 15.5 mm | Heart weight [3]: 0.31 g | Liver weight [3]: 0.84 g | Pectoralis major depth [3]: 3.1^a,b mm | Pectoralis major length [3]: 19.9^b mm | Pectoralis major weight [3]: 0.23^b g | Pectoralis major width [3]: 5.5^b mm | Body weight [4]: 14.2 g | Crown-rump length [4]: 61.1 mm | Head length [4]: 17.8 mm | Head width [4]: 13.7 mm | Heart weight [4]: 0.13 g | Liver weight [4]: 0.25 g | Pectoralis major depth [4]: 7.1 mm | Pectoralis major length [4]: 17.8 mm | Pectoralis major weight [4]: 0.82 g | Pectoralis major width [4]: 15.2 mm | Body weight [5]: 37.9 g | Chest circumference [5]: 60.1 mm | Chest length [5]: 18.5 mm | Chest width [5]: 16.3 mm | Crown-rump length [5]: 85.9 mm | Head circumference [5]: 54.8^b,c mm | Head length [5]: 17.4 mm | Head width [5]: 15.3 mm | Heart weight [5]: 0.22 g | Liver weight [5]: 0.64 g | Pectoralis major depth [5]: 2.7 mm | Pectoralis major length [5]: 17.7^b mm | Pectoralis major weight [5]: 0.18^b g | Pectoralis major width [5]: 5.7 mm | Body weight [6]: 46.1 g | Chest circumference [6]: 62.5 mm | Chest length [6]: 21.2 mm | Chest width [6]: 16.6^a,b mm | Crown-rump length [6]: 95.0 mm | Head circumference [6]: 55.6 mm | Head length [6]: 18.2^a,b mm | Head width [6]: 15.7 mm | Heart weight [6]: 0.31 g | Liver weight [6]: 0.90 g | Pectoralis major depth [6]: 3.3^b mm | Pectoralis major length [6]: 20.3^b mm | Pectoralis major weight [6]: 0.23^b g | Pectoralis major width [6]: 5.6^b mm | Body weight [7]: 13.9 g | Crown-rump length [7]: 61.0 mm | Head length [7]: 17.4 mm | Head width [7]: 14.0 mm | Heart weight [7]: 0.14 g | Liver weight [7]: 0.28 g | Pectoralis major depth [7]: 6.6 mm | Pectoralis major length [7]: 18.5 mm | Pectoralis major weight [7]: 0.84 g | Pectoralis major width [7]: 14.9 mm | Body weight [8]: 38.1 g | Chest circumference [8]: 61.5 mm | Chest length [8]: 18.3 mm | Chest width [8]: 15.4 mm | Crown-rump length [8]: 86.3 mm | Head circumference [8]: 55.0^b mm | Head length [8]: 17.6 mm | Head width [8]: 15.4 mm | Heart weight [8]: 0.23 g | Liver weight [8]: 0.63 g | Pectoralis major depth [8]: 2.9 mm | Pectoralis major length [8]: 17.6^b mm | Pectoralis major weight [8]: 0.17^b g | Pectoralis major width [8]: 5.6 mm | Body weight [9]: 46.6 g | Chest circumference [9]: 61.4 mm | Chest length [9]: 21.1 mm | Chest width [9]: 16.1^a mm | Crown-rump length [9]: 93.0 mm | Head circumference [9]: 53.9 mm | Head length [9]: 17.8^a mm | Head width [9]: 15.5 mm | Heart weight [9]: 0.32 g | Liver weight [9]: 0.96 g | Pectoralis major depth [9]: 3.0^a mm | Pectoralis major length [9]: 19.1^a,b mm | Pectoralis major weight [9]: 0.22^b g | Pectoralis major width [9]: 5.4^b mm | Increase of PMM length (minimum over NR doses) [10]: ≥ 13% | Increase of PMM weight (minimum over NR doses) [10]: ≥ 21% | Increase in PMM depth (at hatch): 18% | Increase in PMM length (at hatch): 13% | Increase in PMM width (at hatch): 17% | PMM weight advantage (at hatch): 35%
